How the values were obtained:
Type in all cases: in vivo
IL-12 = IL-12 levels in sera upon i.v. glycolipid administration to BALB/c mice (ELISA); parameters: IL-12 levels, test 1 / IL-12 levels, test 2 / IL-12 levels, average / IL-12 levels, Total: unit not given here
Procedure: (§1) Five- to six-week-old female C57BL/6 mice and BALB/c mice were purchased from Taconic. Each glycolipid was stored at 1 mg/ml in 100% DMSO. Mice were injected intravenously with 1 μg of each glyocolipid diluted in 200 μL sterile phosphate buffered saline (PBS). At indicated time points, sera were collected from each animal, and concentrations of IFN-γ, IL-4, and IL-12 in the sera were evaluated by enzyme-linked immunosorbent assay (ELISA). Serum concentrations of IFN-γ, IL-4, and IL-12 were evaluated using an ELISA kit (eBioscience, San Diego, Calif.). Briefly, 96 well flat-bottom ELISA plates (NUNC) were coated with capture antibody according to the manufacture's recommendation and incubated overnight at 4° C. The plates were washed with PBS+0.05% Tween 20 (PBS-T), then incubated with manufacturer provided blocking solution for 1 hr at room temperature to block non-specific binding sites. After washing with PBS-T, sera diluted 1:10 was added to the wells and incubated for 2 hrs at room temperature. Plates were then incubated at room temperature for 1 hr with biotintylated detection antibody, washed, incubated with avidin conjugated to horse radish peroxidase (HRP) for 30 min at room temperature, washed, and finally incubated with tetramethylbenzidine substrate solution in the dark for 10 minutes at room temperature. The antibodies, avidin-HRP, and substrate solution were all diluted according to the manufacture's recommendation. Reactions were stopped with 2.0N sulfuric acid and the cytokine concentration in each well was determined by comparing the absorbance at 450 nm in each well to known standards. The levels of Th1- and Th2-type cytokines were determined in two different genetic backgrounds, i.e., in C57BL/6 mice and BALB/c mice. The following compounds were administered: A=compound (A-1 trans-conformer), B=compound (A-2), C=compound (A-3), D=compound (A-4), E=compound (A-5), Z=control (PBS alone), CRONY=α-C-GalCer, KRN=α-GalCer, GCK109 (A-1 trans-conformer), GCK151 (A-1 cis-conformer), GCK152 (A-7). The levels of cytokines were measured at 0, 2, 6, 12, 24, 48, and 72 hours after the compound administration. The levels of Th1-type cytokines IFN-γ and IL-12 are summarized in FIGS. 2A-C and 3A-C, respectively. Table 7 provides IFN-γ/IL-4 and IL-12/IL-4 ratios for various compounds, which can be used as indicators of their ability to selectively stimulate Th1-type immune responses.

IL-4 = IL-4 levels in sera upon i.v. glycolipid administration to BALB/c mice (ELISA); parameters: unit not given here
Procedure: as §1

IFN-γ [1] = assay: IFN-γ levels in sera upon i.v. glycolipid administration to BALB/c mice (ELISA); parameters: IFN-γ levels, test 1 / IFN-γ levels, test 2 / IFN-γ levels, average / IFN-γ levels, Total: unit not given here
Procedure: as §1

IFN-γ [2] = assay: IFN-γ levels in sera upon i.v. glycolipid administration to C57BL/6 mice (ELISA); parameters: IFN-γ levels, test 1 / IFN-γ levels, test 2 / IFN-γ levels, average / IFN-γ levels, Total / IFN-γ (B6): unit not given here
Procedure: as §1

Structure (SMILES): CCCCCCCCCCCCCCCCCC/C=C/CCCCCCCCC(=O)N[C@@H](/C=C/[C@H]1O[C@H](CO)[C@H](O)[C@H](O)[C@H]1O)[C@H](O)[C@H](O)CCCCCCCCCCCCCC [A-1]
- IL-12/IL-4 (BALB/c) (IL-12; ratio calculated from Tables 1-6): 21
- IL-12 levels, average (IL-12; serum, hour 0): 5
- IL-12 levels, test 1 (IL-12; serum, hour 0): 5
- IL-12 levels, test 2 (IL-12; serum, hour 0): 5
- IL-12 levels, average (IL-12; serum, hour 2): 119.5
- IL-12 levels, test 1 (IL-12; serum, hour 2): 0
- IL-12 levels, test 2 (IL-12; serum, hour 2): 239
- IL-12 levels, average (IL-12; serum, hour 6): 6981
- IL-12 levels, test 1 (IL-12; serum, hour 6): 7064
- IL-12 levels, test 2 (IL-12; serum, hour 6): 6898
- IL-12 levels, average (IL-12; serum, hour 12): 7001
- IL-12 levels, test 1 (IL-12; serum, hour 12): 7513
- IL-12 levels, test 2 (IL-12; serum, hour 12): 6489
- IL-12 levels, average (IL-12; serum, hour 24): 306
- IL-12 levels, test 1 (IL-12; serum, hour 24): 299
- IL-12 levels, test 2 (IL-12; serum, hour 24): 313
- IL-12 levels, average (IL-12; serum, hour 48): 0
- IL-12 levels, test 1 (IL-12; serum, hour 48): 0
- IL-12 levels, test 2 (IL-12; serum, hour 48): 0
- IL-12 levels, average (IL-12; serum, hour 72): 48.5
- IL-12 levels, test 1 (IL-12; serum, hour 72): 0
- IL-12 levels, test 2 (IL-12; serum, hour 72): 97
- IL-12 levels, Total (IL-12; serum, total over hours 0-72): 14462
- IL-4 level, average (IL-4; hour 0): 27
- IL-4 level, test 1 (IL-4; hour 0): 27
- IL-4 level, test 2 (IL-4; hour 0): 27
- IL-4 level, average (IL-4; hour 2): 431.5
- IL-4 level, test 1 (IL-4; hour 2): 358
- IL-4 level, test 2 (IL-4; hour 2): 505
- IL-4 level, average (IL-4; hour 6): 95.5
- IL-4 level, test 1 (IL-4; hour 6): 85
- IL-4 level, test 2 (IL-4; hour 6): 106
- IL-4 level, average (IL-4; hour 12): 51
- IL-4 level, test 1 (IL-4; hour 12): 52
- IL-4 level, test 2 (IL-4; hour 12): 50
- IL-4 level, average (IL-4; hour 24): 41.5
- IL-4 level, test 1 (IL-4; hour 24): 40
- IL-4 level, test 2 (IL-4; hour 24): 43
- IL-4 level, average (IL-4; hour 48): 44
- IL-4 level, test 1 (IL-4; hour 48): 46
- IL-4 level, test 2 (IL-4; hour 48): 42
- IL-4 level, average (IL-4; hour 72): 4
- IL-4 level, test 1 (IL-4; hour 72): 4
- IL-4 level, test 2 (IL-4; hour 72): 4
- IL-4 level, Total (IL-4; total over hours 0-72): 696
- IFN-γ/IL-4 (BALB/c) (IFN-γ [1]; BALB/c, ratio calculated from Tables 1-6): 37
- IFN-γ levels, average (IFN-γ [1]; BALB/c, serum, hour 0): 27
- IFN-γ levels, test 1 (IFN-γ [1]; BALB/c, serum, hour 0): 27
- IFN-γ levels, test 2 (IFN-γ [1]; BALB/c, serum, hour 0): 27
- IFN-γ levels, average (IFN-γ [1]; BALB/c, serum, hour 2): 303
- IFN-γ levels, test 1 (IFN-γ [1]; BALB/c, serum, hour 2): 373
- IFN-γ levels, test 2 (IFN-γ [1]; BALB/c, serum, hour 2): 233
- IFN-γ levels, average (IFN-γ [1]; BALB/c, serum, hour 6): 3990.5
- IFN-γ levels, test 1 (IFN-γ [1]; BALB/c, serum, hour 6): 2814
- IFN-γ levels, test 2 (IFN-γ [1]; BALB/c, serum, hour 6): 5167
- IFN-γ levels, average (IFN-γ [1]; BALB/c, serum, hour 12): 5514
- IFN-γ levels, test 1 (IFN-γ [1]; BALB/c, serum, hour 12): 4881
- IFN-γ levels, test 2 (IFN-γ [1]; BALB/c, serum, hour 12): 6147
- IFN-γ levels, average (IFN-γ [1]; BALB/c, serum, hour 24): 15250
- IFN-γ levels, test 1 (IFN-γ [1]; BALB/c, serum, hour 24): 16100
- IFN-γ levels, test 2 (IFN-γ [1]; BALB/c, serum, hour 24): 14400
- IFN-γ levels, average (IFN-γ [1]; BALB/c, serum, hour 48): 484.5
- IFN-γ levels, test 1 (IFN-γ [1]; BALB/c, serum, hour 48): 441
- IFN-γ levels, test 2 (IFN-γ [1]; BALB/c, serum, hour 48): 528
- IFN-γ levels, average (IFN-γ [1]; BALB/c, serum, hour 72): 62.5
- IFN-γ levels, test 1 (IFN-γ [1]; BALB/c, serum, hour 72): 62
- IFN-γ levels, test 2 (IFN-γ [1]; BALB/c, serum, hour 72): 63
- IFN-γ levels, Total (IFN-γ [1]; BALB/c, serum, total over hours 0-72): 25633
- effect: higher/extended IFN-γ and IL-12 with much lower IL-4 compared to α-GalCer (KRN) (IFN-γ [1]; C57BL/6 and BALB/c mice, 1 μg i.v.): particularly pronounced
- IFN-γ/IL-4 (B6) (IFN-γ [2]; C57BL/6, ratio calculated from Tables 1-6): 12
- IFN-γ levels, average (IFN-γ [2]; C57BL/6, serum, hour 0): 31
- IFN-γ levels, test 1 (IFN-γ [2]; C57BL/6, serum, hour 0): 31
- IFN-γ levels, test 2 (IFN-γ [2]; C57BL/6, serum, hour 0): 31
- IFN-γ levels, average (IFN-γ [2]; C57BL/6, serum, hour 2): 281
- IFN-γ levels, test 1 (IFN-γ [2]; C57BL/6, serum, hour 2): 226
- IFN-γ levels, test 2 (IFN-γ [2]; C57BL/6, serum, hour 2): 336
- IFN-γ levels, average (IFN-γ [2]; C57BL/6, serum, hour 6): 1147.5
- IFN-γ levels, test 1 (IFN-γ [2]; C57BL/6, serum, hour 6): 1172
- IFN-γ levels, test 2 (IFN-γ [2]; C57BL/6, serum, hour 6): 1123
- IFN-γ levels, average (IFN-γ [2]; C57BL/6, serum, hour 12): 4323
- IFN-γ levels, test 1 (IFN-γ [2]; C57BL/6, serum, hour 12): 4093
- IFN-γ levels, test 2 (IFN-γ [2]; C57BL/6, serum, hour 12): 4553
- IFN-γ levels, average (IFN-γ [2]; C57BL/6, serum, hour 24): 11150
- IFN-γ levels, test 1 (IFN-γ [2]; C57BL/6, serum, hour 24): 10000
- IFN-γ levels, test 2 (IFN-γ [2]; C57BL/6, serum, hour 24): 12300
- IFN-γ levels, average (IFN-γ [2]; C57BL/6, serum, hour 48): 400.5
- IFN-γ levels, test 1 (IFN-γ [2]; C57BL/6, serum, hour 48): 366
- IFN-γ levels, test 2 (IFN-γ [2]; C57BL/6, serum, hour 48): 435
- IFN-γ levels, average (IFN-γ [2]; C57BL/6, serum, hour 72): 151
- IFN-γ levels, test 1 (IFN-γ [2]; C57BL/6, serum, hour 72): 124
- IFN-γ levels, test 2 (IFN-γ [2]; C57BL/6, serum, hour 72): 178
- IFN-γ levels, Total (IFN-γ [2]; C57BL/6, serum, total over hours 0-72): 17485

— patent US8883745B2, “C—glycolipids with enhanced Th-1 profile” (New York University, priority 2006, dated 2014)
